Data published in the PolyMetriX glass transition set.
± gives the standard deviation of the reports.

Row | SMILES | glass transition temperature
1 | *CCCCCCOC(=O)C(CCCCCOc1ccc(/N=N/c2ccncc2)cc1)C(=O)OCCCCCCOc1ccc(-c2ccc(O*)cc2)cc1 (repeat unit) | 53.60 °C
2 | *Oc1ccc(CC(NC(=O)CCc2ccc(OC(=O)CCCCC(*)=O)cc2)C(=O)OCC)cc1 (repeat unit) | 61.00 °C
3 | *c1cccc(N2C(=O)C3CCC(C4CCC5C(=O)N(*)C(=O)C5C4)CC3C2=O)c1 (repeat unit) | 263.00 °C
4 | *N=P(N=P(N=S(*)(=O)NCCCC)(NCCCC)NCCCC)(NCCCC)NCCCC (repeat unit) | -16.00 °C
5 | *Nc1ccc(NC(=O)c2ccc(NC(=O)CCCCCCCCCCCCC(=O)Nc3ccc(C(*)=O)cc3)cc2)cc1C(=O)OCCCCCCCCCCCCCCCCCC (repeat unit) | 191.00 °C
6 | *c1cccc(Cc2cccc(N3C(=O)c4ccc([Si](C)(C)c5ccc([Si](C)(C)c6ccc7c(c6)C(=O)N(*)C7=O)cc5)cc4C3=O)c2)c1 (repeat unit) | 246.00 °C
7 | *CC(*)C(=O)Nc1ccccc1 (repeat unit) [Poly(N-phenyl acrylamide)] | 155.92 ± 5.8 °C
8 | *c1ccc2c(c1)C(=O)N(c1ccc(Cc3ccc(N4C(=O)c5ccc(C(F)(F)C(F)(F)C(*)(F)F)cc5C4=O)cc3)cc1)C2=O (repeat unit) | 290.00 °C
9 | *CNC(=O)OCc1ccc(COC(=O)NCc2ccc(C(C)(C)c3ccc(*)o3)o2)o1 (repeat unit) | 55.00 °C
10 | *C(=O)OCCCCCCCCCOC(=O)c1ccc(N2C(=O)c3ccc(*)cc3C2=O)cc1 (repeat unit) | 62.00 °C
11 | *CC(O)CN(*)c1ccc(/N=N/c2ccc(C(=O)O)cc2)cc1 (repeat unit) | 99.00 °C
12 | *c1ccc(-c2sc(-c3ccc(-c4cc(CCCCCCCCCCCC)c(*)s4)cc3)cc2CCCCCCCCCCCC)cc1 (repeat unit) | -19.20 °C
13 | *O[Si](*)(C)C1CC2CC1CC2OC(=O)OC(C)(C)C (repeat unit) | 60.00 °C
14 | *Sc1ccc(Nc2ccc(Nc3ccc(*)cc3)cc2)cc1 (repeat unit) | 114.00 °C
15 | *CCN(*)C(=O)c1ccccc1F (repeat unit) | 109.00 °C
16 | *Oc1ccc(OC(=O)c2ccc(Sc3cccc(OC(=O)c4ccc(C(=O)Oc5cccc(Sc6ccc(C(*)=O)cc6)c5)cc4)c3)cc2)cc1C (repeat unit) | 135.00 °C
17 | *CC(*)(C)C(=O)Oc1ccc2c(c1)CCC2 (repeat unit) | 113.50 °C
18 | *c1cccc(OCCCCCCCCCCOc2cccc(N3C(=O)c4ccc(-c5cccc6c5C(=O)N(*)C6=O)cc4C3=O)c2)c1 (repeat unit) | 127.00 °C
19 | *c1ccc2c(c1)Cc1cc(-n3c(=O)c4cc5c(=O)n(*)c(=O)c5cc4c3=O)ccc1-2 (repeat unit) | 322.00 °C
20 | *Oc1ccc(C2(c3ccc(OC(=O)c4cccc(C(*)=O)c4)c(C)c3)c3ccccc3-c3ccccc32)cc1C (repeat unit) | 287.00 °C

Row | SMILES | glass transition temperature
21 | *Oc1ccc(/C=N/N=C/c2ccc(Oc3ccc(C(C)(C)c4ccc(*)cc4)cc3)cc2)cc1 (repeat unit) | 163.00 °C
22 | *c1ccc(Oc2ccc(C(=O)c3cccc(C(=O)c4ccc(Oc5ccc(-c6c7c(c(*)c8ccccc68)C(=O)N(c6ccc(F)cc6)C7=O)cc5)cc4)c3)cc2)cc1 (repeat unit) | 243.00 °C
23 | *Oc1ccc(/C=C/c2cc(OCCCCCCCC)c(/C=C/c3ccc(Oc4cc5c6c(ccc7c8c(*)cc9c%10c(ccc(c4c67)c%108)C(=O)N(CCCCCCCC)C9=O)C(=O)N(CCCCCCCC)C5=O)cc3)cc2OCCCCCCCC)cc1 (repeat unit) | 103.00 °C
24 | *C/C=C/N(/C=C/CC1CC(=O)N(c2ccc(Cc3ccc(N4C(=O)CC(*)C4=O)cc3)cc2)C1=O)c1ccc(/N=N/c2ccc([N+](=O)[O-])cc2)cc1 (repeat unit) | 277.00 °C
25 | *CC(*)n1c2ccccc2c2ccccc21 (repeat unit) [Poly(N-vinyl carbazole)] | 150 ± 44 °C
26 | *Oc1ccc(C2(c3ccc(OC(=O)c4ccc(C(*)=O)cc4)cc3)CCC3CCCCC3C2)cc1 (repeat unit) | 275.00 °C
27 | *c1ccc(OCCN(C)c2ccc(/C=C/C3=CC(=C4/C(=O)c5ccccc5C4=C(C#N)C#N)/C=C(/C=C/c4ccc(N(C)CCOc5ccc(-c6nc7ccc(Oc8ccc9nc(*)c(-c%10ccccc%10)nc9c8)cc7nc6-c6ccccc6)cc5)cc4)O3)cc2)cc1 (repeat unit) | 260.00 °C
28 | *c1ccc(Sc2cc3c(cc2Sc2ccc(N4C(=O)c5ccc(Oc6ccc7c(c6)C(=O)N(*)C7=O)cc5C4=O)cc2)C(=O)N(CCc2ccccc2)C3=O)cc1 (repeat unit) | 218.00 °C
29 | *O[Si](*)(C)CCc1cc(C(=O)Oc2ccc(OCCCC)cc2)ccc1C(=O)Oc1ccc(OCCCC)cc1 (repeat unit) | 92.00 °C
30 | *c1ccc(Oc2ccccc2-n2c(=O)c3cc4c(=O)n(*)c(=O)c4cc3c2=O)cc1 (repeat unit) | 386.00 °C
31 | *c1ccc(Oc2ccc(C(=O)c3ccc(Oc4ccc(-c5nnc(*)c6c(-c7ccc(F)cc7)c(-c7ccc(F)cc7)c(-c7ccc(F)cc7)c(-c7ccc(F)cc7)c56)cc4)cc3)cc2)cc1 (repeat unit) | 313.00 °C
32 | *c1ccc(OCCN(CCOc2ccc(-c3nc4ccc(Oc5ccc6nc(*)c(-c7ccccc7)nc6c5)cc4nc3-c3ccccc3)cc2)c2ccc(/N=N/c3ccc([N+](=O)[O-])cc3)cc2)cc1 (repeat unit) | 199.00 °C
33 | *CC(=O)Nc1ccc(Oc2ccc(Oc3ccc(NC(=O)c4ccc5c(c4)C(=O)N(*)C5=O)cc3)cc2)cc1 (repeat unit) | 242.00 °C
34 | *CC(*)OC(=O)C(C)(C(C)C)C(C)C (repeat unit) | 120.00 °C
35 | *CCCCCCOC(=O)c1cc(OCCCCCCOc2ccc(/N=N/c3ccc(C#N)cc3)cc2)cc(C(=O)OCCCCCCN2C(=O)c3ccc(-c4ccc5c(c4)C(=O)N(*)C5=O)cc3C2=O)c1 (repeat unit) | 93.00 °C
36 | *Oc1ccc(C(c2ccccc2)(c2ccccc2)c2ccc(Oc3ccc4c(=O)n5c6cc(-c7ccc8c(c7)nc7c9ccc(*)c%10cccc(c(=O)n87)c%109)ccc6nc5c5cccc3c45)cc2)cc1 (repeat unit) | 357.00 °C
37 | *Oc1ccc(Oc2cccc(*)n2)cc1 (repeat unit) | 100.00 °C
38 | *c1ccc2c(c1)C(=O)N(c1ccc3c(c1)-c1cc(N4C(=O)c5ccc(C(*)(C(F)(F)F)C(F)(F)F)cc5C4=O)ccc1C3)C2=O (repeat unit) | 394.00 °C
39 | *Oc1ccc(Oc2ccc(/C=N/c3ccc(/N=C/c4ccc(*)cc4)cc3)cc2)cc1 (repeat unit) | 117.00 °C
40 | *O[Si](C)(C)O[Si](C)(C)O[Si](C)(C)Oc1c(C)cc(-c2cc(C)c(*)c(C)c2)cc1C (repeat unit) | 14.00 °C

Row | SMILES | glass transition temperature
41 | *c1ccc(Sc2ccc(-c3nn(-c4ccc(S(=O)(=O)c5ccc(-n6nc(*)c7ccccc7c6=O)cc5)cc4)c(=O)c4ccccc34)cc2)cc1 (repeat unit) | 279.00 °C
42 | *C([2H])([2H])C(*)(C(=O)OC([2H])([2H])[2H])C([2H])([2H])[2H] (repeat unit) | 115.00 °C
43 | *CC(*)(C)C(=O)OCC1(C)COC(C)(C)OC1 (repeat unit) | 108.00 °C
44 | *CC(C)(CO*)COCCCCCCCCCCOc1ccc(-c2ccc(C#N)cc2)cc1 (repeat unit) | 7.00 °C
45 | *c1ccc(OC(=O)c2cccc(C(=O)Oc3ccc(C4(*)NC(=O)c5ccccc54)cc3)c2)cc1 (repeat unit) | 325.00 °C
46 | *CC(O)COc1c(C)cc(C(C)(C)c2cc(C)c(OCC(O)COc3ccc(S(=O)(=O)c4ccc(O*)cc4)cc3)c(C)c2)cc1C (repeat unit) | 145.00 °C
47 | *c1ccc(Oc2ccc(-c3nc4cc(Oc5ccc(NC(=O)c6ccc7c(c6)C(=O)N(c6ccc(C(c8ccc(N9C(=O)c%10ccc(C(=O)Nc%11ccc(Oc%12ccc%13nc(-c%14ccccc%14)c(*)nc%13c%12)cc%11)cc%10C9=O)cc8)(C(F)(F)F)C(F)(F)F)cc6)C7=O)cc5)ccc4nc3-c3ccccc3)cc2)cc1 (repeat unit) | 289.00 °C
48 | *CC(*)C(=O)OCCCSCC (repeat unit) | -76.00 °C
49 | *CC(*)(C)C(=O)OCC1COCCOCCOCCOCCOC1 (repeat unit) | 31.00 °C
50 | *C(=O)Nc1ccc(C2(c3ccc(N4C(=O)c5ccc(*)cc5C4=O)cc3)CCC(C(C)(C)CC)CC2)cc1 (repeat unit) | 342.00 °C
51 | *Nc1ccc(C(C)(C)c2ccc(C(C)(C)c3ccc(Nc4ccc(C(=O)c5ccc(C(=O)c6ccc(*)cc6)cc5)cc4)cc3)cc2)cc1 (repeat unit) | 157.00 °C
52 | *O[Si](*)(C)OCCCCCCCCCCCOc1ccc(C2COC(c3ccc(OC)cc3)OC2)cc1 (repeat unit) | 44.00 °C
53 | *Oc1ccc(-c2ccc(OC(=O)c3ccc(-c4ccc(C(*)=O)cc4C(F)(F)F)c(C(F)(F)F)c3)cc2C(=O)OCCCCCCCCCCCOc2ccc(-c3ccc(C#N)cc3)cc2)c(C(=O)OCCCCCCCCCCCOc2ccc(-c3ccc(C#N)cc3)cc2)c1 (repeat unit) | 50.00 °C
54 | */C(=C(/*)c1ccc([Si](C)(C)C)cc1)c1ccccc1 (repeat unit) | 200.00 °C
55 | */C=C/c1ccc(N(c2ccc(/C=C/c3ccc4c5ccc(*)cc5n(CC(CC)CCCC)c4c3)cc2)c2ccc(OCC(CC)CCCC)cc2)cc1 (repeat unit) | 132.00 °C
56 | *Oc1cc(OC(=O)c2ccc(Oc3ccc(C4(c5ccc(Oc6ccc(C(*)=O)cc6)cc5)CCC(C(C)(C)C)CC4)cc3)cc2)ccc1C12CC3CC(CC(C3)C1)C2 (repeat unit) | 180.00 °C
57 | *C(=O)Nc1ccc(Oc2ccccc2-c2ccccc2Oc2ccc(NC(=O)c3ccc4c(c3)C(=O)N(c3ccc(Oc5ccc(N6C(=O)c7ccc(*)cc7C6=O)cc5)cc3)C4=O)cc2)cc1 (repeat unit) | 239.00 °C
58 | *OC(=O)c1ccc(Cc2ccc(C(*)=O)cc2)cc1 (repeat unit) | 122.00 °C
